Laboratory results published in publication PMC8579695, “The Stringent Response Inhibits 70S Ribosome Formation in Staphylococcus aureus by Impeding GTPase-Ribosome Interactions” (mBio, 2021).

Columns and labels:
Era = Era (Staphylococcus aureus, UniProt Q2FGF6); assay: DRaCALA binding of 32P-labeled nucleotides to 6×His-tagged Era; conditions: for Bmax, Era: mean ± SEM, Bmax values indicate the fraction bound
Protocol: (§1) The RA-GTPases RsgA, Era, RbgA, and HflX can bind to the guanosine nucleotides GTP, GDP, ppGpp, and pppGpp. Our previous work observed higher binding affinities for ppGpp over GTP, pointing toward a difference in binding between 5′ di- or triphosphate nucleotides ([27]). […] Furthermore, these previous experiments were performed using recombinant proteins fused to large MBP tags, which could impact binding affinity determination. To examine the nucleotide binding affinities of these RA-GTPases for GDP in comparison to ppGpp, pppGpp, and GTP, and in the absence of a large tag, we used a differential radial capillary action of ligand assay (DRaCALA) with recombinant RsgA, RbgA, Era, and HflX fused to a smaller 6× His tag (Fig. 1B; see also Fig. S2A to C in the supplemental material) ([36]). In each case, the affinities of 5′ diphosphate-containing GDP and ppGpp were similar in the low μM range and were 2- to 6-fold higher than the affinities of either GTP or pppGpp (Table 1).
(§2) Supplementary file : FIG S2 Examination of the binding of GDP, ppGpp, GTP, and pppGpp to RA-GTPases by DRaCALA. (A to C) Determination of binding affinities and Kd values for ^32P-labeled nucleotides to purified recombinant 6×His-tagged RsgA (A), Era (B), and HflX (C). Kd values were determined from the binding curves as previously described ([36]). (D to F) DRaCALA binding assay of recombinant RsgA (D), Era (E), and HflX (F) binding to ^32P-labeled GTP, ppGpp, and pppGpp in the presence or absence of 100 μM cold competitors (GTP, GDP, ppGpp, pppGpp, and ATP). All experiments were carried out in triplicate, with error bars representing standard deviations. Download FIG S2, TIF file, 0.9 MB.
(§3) The synthesis of (p)ppGpp and differential radial capillary action of ligand assay (DRaCALA) binding and competition assays were performed as described previously ([27]), using recombinant, 6×His-tagged protein at the concentrations specified in the figure legends.

RbgA = RbgA (Staphylococcus aureus, UniProt A0A0H2XK72); assay: DRaCALA binding of 32P-labeled nucleotides to 6×His-tagged RbgA; conditions: for Bmax, RbgA: mean ± SEM, Bmax values indicate the fraction bound
Chain of RbgA (A0A0H2XK72 entry or part of it): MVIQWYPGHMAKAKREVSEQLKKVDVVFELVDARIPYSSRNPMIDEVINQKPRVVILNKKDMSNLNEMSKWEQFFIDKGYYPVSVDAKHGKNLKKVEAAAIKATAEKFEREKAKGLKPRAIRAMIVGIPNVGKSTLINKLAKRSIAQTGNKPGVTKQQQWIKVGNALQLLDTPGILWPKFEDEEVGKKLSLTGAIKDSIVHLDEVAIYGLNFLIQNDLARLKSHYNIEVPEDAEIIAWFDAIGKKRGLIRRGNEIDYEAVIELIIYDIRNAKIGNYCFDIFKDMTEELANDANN
Excerpt: FIG 1 Nucleotide binding characteristics of RA-GTPases. (A) Schematic representation of the domain structure of Era, RsgA, RbgA, and HflX from S. aureus. The conserved GTPase domain (G domain) is colored in green, and accessory domains are shown. (B) Determination of binding affinities and Kd values for ^32P-labeled GTP, GDP, ppGpp, and pppGpp with purified recombinant 6×His-tagged RbgA using DRaCALA, as previously described ([36]). Each point is the mean average of at least three technical replicates, and error bars indicate standard deviations. (C) Binding assay (DRaCALA) of recombinant RbgA binding to ^32P-labeled GTP, ppGpp, and pppGpp in the presence of an excess of cold competitor (GTP, GDP, ppGpp, pppGpp, or ATP). All experiments were carried out in triplicate, with error bars representing standard deviations.
as §1, §3

RsgA = RsgA (Staphylococcus aureus, UniProt P67682); assay: DRaCALA binding of 32P-labeled nucleotides to 6×His-tagged RsgA; conditions: for Bmax, RsgA: mean ± SEM, Bmax values indicate the fraction bound
Chain of RsgA (P67682 whole entry): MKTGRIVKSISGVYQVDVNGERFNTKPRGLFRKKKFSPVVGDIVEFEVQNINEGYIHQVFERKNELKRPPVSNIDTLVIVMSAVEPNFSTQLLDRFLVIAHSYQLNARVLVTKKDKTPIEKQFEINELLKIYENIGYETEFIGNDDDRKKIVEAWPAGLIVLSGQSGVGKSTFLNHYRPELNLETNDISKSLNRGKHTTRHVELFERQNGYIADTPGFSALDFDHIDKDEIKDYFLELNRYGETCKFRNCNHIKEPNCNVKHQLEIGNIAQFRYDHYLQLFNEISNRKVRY
Protocol: as §1, §2, §3

HflX = HflX (Staphylococcus aureus, UniProt Q2FYY9); assay: DRaCALA binding of 32P-labeled nucleotides to 6×His-tagged HflX; conditions: for Bmax, HflX: mean ± SEM, Bmax values indicate the fraction bound
Chain of HflX (Q2FYY9 entry or part of it): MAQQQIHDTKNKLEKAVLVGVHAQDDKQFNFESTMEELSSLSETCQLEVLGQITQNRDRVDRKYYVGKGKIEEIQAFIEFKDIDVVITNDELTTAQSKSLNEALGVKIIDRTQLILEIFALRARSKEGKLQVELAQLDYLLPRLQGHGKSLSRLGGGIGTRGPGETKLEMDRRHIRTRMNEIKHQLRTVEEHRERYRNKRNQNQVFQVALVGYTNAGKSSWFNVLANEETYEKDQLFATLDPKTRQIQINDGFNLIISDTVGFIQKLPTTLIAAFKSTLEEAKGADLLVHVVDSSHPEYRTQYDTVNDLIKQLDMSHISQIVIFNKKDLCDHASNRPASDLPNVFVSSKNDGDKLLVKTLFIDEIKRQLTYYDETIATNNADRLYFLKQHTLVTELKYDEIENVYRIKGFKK
Protocol: as §1, §2, §3

[1] = target: Era association to the 30S ribosomal subunit (Staphylococcus aureus, UniProt Q2FGF6); assay: In vitro ribosome association assay (sucrose gradient, α-His Western immunoblot), Era; format: binding; conditions: 40 μM nucleotide; compared to apo, GTP, or GMPPNP-bound states
Chain of Era association to the 30S ribosomal subunit (Q2FGF6 whole entry): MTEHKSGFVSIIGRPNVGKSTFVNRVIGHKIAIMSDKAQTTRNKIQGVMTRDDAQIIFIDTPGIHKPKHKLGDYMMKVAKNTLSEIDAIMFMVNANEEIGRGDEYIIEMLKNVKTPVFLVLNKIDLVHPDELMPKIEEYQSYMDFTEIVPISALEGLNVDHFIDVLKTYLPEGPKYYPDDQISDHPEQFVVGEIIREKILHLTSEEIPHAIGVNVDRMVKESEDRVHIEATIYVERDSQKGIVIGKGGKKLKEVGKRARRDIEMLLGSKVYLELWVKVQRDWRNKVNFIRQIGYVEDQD
Excerpt: (§4) It is well characterized that rRNA transcription decreases during the stringent response ([39]). In addition, the GTPase activity of ribosome assembly cofactors is inhibited by (p)ppGpp, both of which contribute to a reduction in mature ribosomes within the cell ([27]). To examine mechanistically how (p)ppGpp-GTPase interactions affect the ability of RA-GTPases to associate with ribosomal subunits, we examined the association of each GTPase to either the 30S or 50S ribosomal subunit in the presence of GDP, GTP, ppGpp, and pppGpp, as well as GMPPNP, a nonhydrolyzable analogue of GTP. The production and isolation of immature subunits, which can comprise several different immature states, introduces a large degree of heterogeneity, and so here we, and others, use homogenous mature particles as a system to examine the binding event, rather than the role of GTPase activity in downstream maturation ([11], [12], [29], [40], [41]). His-tagged GTPases were preincubated with highly pure, salt-washed 70S S. aureus ribosomes in a low-magnesium buffer to encourage ribosomal subunit dissociation, and the amount of each GTPase associated with each of the subunits was quantified by Western immunoblotting with anti-His antibodies after sucrose gradient separation. […]
(§5) FIG 2 (p)ppGpp and GDP binding reduces RA-GTPase association to the ribosome. […] After subunit separation and precipitation, bound proteins were detected in the 30S fraction using HRP-conjugated α-His antibodies. […] Bound proteins were detected in the 50S fraction using HRP-conjugated α-His antibodies. […]
(§6) A 500 nM concentration of recombinant 6×His-tagged RA-GTPase was incubated at room temperature for 5 min with 200 nM S. aureus 70S ribosomes in dissociation buffer (20 mM Tris [pH 7.5], 120 mM NH4Cl, 1.5 mM MgCl2, 2 mM β-mercaptoethanol) in the apo form and in the presence of 40 μM GTP, GMPPNP, GDP, ppGpp, or pppGpp. […] Gradients were fractionated by upward displacement of 250-μl aliquots, which were analyzed for RNA content at an absorbance of 260 nm. […]

[2] = system: HflX association to the 30S and 50S ribosomal subunits; assay: In vitro ribosome association assay (sucrose gradient, α-His Western immunoblot), HflX; format: binding, Staphylococcus aureus; conditions: 40 μM nucleotide; compared to apo, GTP, or GMPPNP-bound states
Excerpt: as §4, §5, §6

[3] = system: RA-GTPases RsgA, RbgA, Era, and HflX; assay: DRaCALA binding and competition assays across the four RA-GTPases; parameters: species or system Staphylococcus aureus; conditions: 100 μM cold competitor
Excerpt: FIG 1 Nucleotide binding characteristics of RA-GTPases. (A) Schematic representation of the domain structure of Era, RsgA, RbgA, and HflX from S. aureus. The conserved GTPase domain (G domain) is colored in green, and accessory domains are shown. (B) Determination of binding affinities and Kd values for ^32P-labeled GTP, GDP, ppGpp, and pppGpp with purified recombinant 6×His-tagged RbgA using DRaCALA, as previously described ([36]). Each point is the mean average of at least three technical replicates, and error bars indicate standard deviations. (C) Binding assay (DRaCALA) of recombinant RbgA binding to ^32P-labeled GTP, ppGpp, and pppGpp in the presence of an excess of cold competitor (GTP, GDP, ppGpp, pppGpp, or ATP). All experiments were carried out in triplicate, with error bars representing standard deviations. […]
Supplementary file : FIG S2 Examination of the binding of GDP, ppGpp, GTP, and pppGpp to RA-GTPases by DRaCALA. […] Kd values were determined from the binding curves as previously described ([36]). […]
Structural data places (p)ppGpp within the GTP-binding site of the RA-GTPase RbgA ([6]), indicating a competitive mode of inhibition. […] Based on our measured affinities (Table 1), we speculate that both GDP and ppGpp will outcompete other nucleotides for occupancy of the binding site. […]

[4] = system: HflX binding to 50S ribosomes; assay: Stopped-flow fluorescence kinetics of HflX-Atto488 association to 50S subunits; parameters: species or system Staphylococcus aureus
Protocol: FIG 3 Stopped-flow kinetic parameters of RA-GTPase association to the ribosomal subunits. (A) Schematic representation of the experimental setup for stopped-flow analysis. Nucleotides (brown circles), 50S subunits (orange oval), and Atto488-labeled RA-GTPases (purple hexagon) are indicated. Arrows indicate the direction of syringe movement. Atto-488 was excited using a 470-nm LED, and fluorescence was detected through a 515-nm long-pass filter. (B and C) Fluorescent change upon mixing 0.2 μM RbgA-Atto488 (B) or HflX-Atto488 (C) with 0.2 μM 50S ribosomal subunits in the presence of 100 μM GTP, ppGpp, and pppGpp or in the apo state using the stopped-flow fluorescence apparatus. Fluorescently labeled protein was also mixed with buffer lacking 50S subunits as a mixing control. Fluorescence of the reaction was tracked using exponential sampling for 10 s, and each curve represents the mean average of at least five technical replicates. (D) kapp1 dependence on 50S concentration for HflX complexed with GTP (green), ppGpp (pink), and pppGpp (black). (E) Same as for panel D for the kapp2 dependence. (F and G) Sum and product analyses of apparent rates during HflX association to the 50S subunit. HflX-Atto488 (0.05 μM) was mixed with increasing titrations of 50S ribosomal subunits over the fluorescently labeled protein in the presence of 20 μM GTP or ppGpp. The resultant traces (see Fig. S4) were analyzed by nonlinear regression using two exponential terms. The sum (F) and product (G) of apparent rates (kapp1 [D] and kapp2 [E]) were plotted as a function of the total concentration of the 50S subunits and HflX protein to determine the microscopic constants k1, k-1, k2, and k-2 (Table 2) and the resulting dissociation constant (Kd) (see Materials and Methods). Error bars represent the standard deviations of the apparent rates of four or more individual traces (D and E) or the standard errors of the two-step analysis (F and G).
Next, we used a constant concentration of protein in the presence of 200-fold excess of each nucleotide and titrated it with increasing concentrations of ribosomal subunits (see Fig. S4). […]
For initial controls, 0.2 μM Atto-488-labeled proteins were rapidly mixed with 0.2 μM E. coli 50S ribosomal subunits (purified as described elsewhere) in TAKM7 buffer (25 mM Tris-HCl [pH 7.4], 70 mM ammonium acetate, 30 mM KCl, 7 mM MgCl2) using an SX20 stopped-flow apparatus (Applied Photophysics) in the presence or absence of GTP, ppGpp, and pppGpp. […] Atto-488 was excited using a 470-nm LED and fluorescence was detected through a 515-nm long-pass filter. Reactions were monitored for 10 s, with 1,000 total data points per reaction. Each condition was subject to at least five technical repeats, with curves representing the mean average fluorescence of the technical repeats. […]

Chain of Era (Q2FGF6 whole entry, the tested form may be a part): as the sequence (Q2FGF6 whole entry) above

Structure (SMILES)	Kd (Era)	Bmax, Era (Era)	Kd (RbgA)	Bmax, RbgA (RbgA)	Kd (RsgA)	Bmax, RsgA (RsgA)	Kd (HflX)	Bmax, HflX (HflX)	reduction in ribosome binding of Era [1]	reduction in ribosome binding of HflX [2]	competition of cold unlabeled nucleotide with 32P-labeled GTP, ppGpp, pppGpp [3]	kapp2 of HflX association to 50S ([4]; GTP: hyperbolic, plateau, ppGpp: independent of 50S concentration)	linear increase in kapp1 of HflX, GTP relative to ppGpp or pppGpp ([4]; dependence on 50S concentration)
Nc1nc2c(ncn2[C@@H]2O[C@H](COP(=O)(O)OP(=O)(O)O)[C@@H](O)[C@H]2O)c(=O)[nH]1 [GDP]	4.9 ± 0.7 µM	0.5 ± 0.0	6.1 ± 1.1 µM	0.5 ± 0.0	1.8 ± 0.2 µM	0.9 ± 0.0	4.9 ± 0.7 µM	0.7 ± 0.0	2 fold	2 fold	competing more effectively	–	–
Nc1nc2c(ncn2[C@@H]2O[C@H](COP(=O)(O)OP(=O)(O)OP(=O)(O)O)[C@@H](O)[C@H]2O)c(=O)[nH]1 [GTP]	11.5 ± 1.6 µM	0.3 ± 0.0	18.5 ± 5.4 µM	0.4 ± 0.0	3.6 ± 0.4 µM	0.8 ± 0.0	–	0.7 ± 0.3	–	–	–	~2 s⁻¹	2 fold
